These results are taken from patent publication US20230219986A1, “NOVEL AMINOPYRIMIDINE EGFR INHIBITOR” (QILU PHARMACEUTICAL CO., LTD., priority 2020, published 2023).

For data set [1], the target named is T1, L858R/T790M/C797S triple mutant EGFR (Homo sapiens, UniProt P00533, C797S/L858R/T790M).
T1 construct: purchased Signalchem
Description: Enzymology experiment in vitro (HTRF/FRET kinase activity), L858R/T790M/C797S triple mutant EGFR. Format: biochemical. The note with it: HTRF KinEASE-TK, read-out: EGFR (L858R/T790M/C797S) IC50. Summed up: (§1)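 Kinase reaction run 40 min at room temperature with peptide and ATP after a 10 min compound–enzyme preincubation. Phosphorylation read as HTRF signal after 1 h with Eu³⁺ antibody, XL665-streptavidin and EDTA (Cisbio KinEASE-TK).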
A general note: TR-FRET usually uses a lanthanide donor and a delayed reading to cut background.

Data set [2] has as its system PC9 (De119/T790M/C797S) nude mice xenograft model. Description: In vivo efficacy research experiment B (compound 243). Further details: species or system BALB/c-nu mice. Conditions: for Tumor volume (mean ± standard error): PC9 (De119/T790M/C797S) xenograft. On the procedure:
To evaluate the antitumor activity and toxic side effects of compound 243 orally administered for 21 days in PC9 (De119/T790M/C797S) nude mice xenograft model.
(§2) BALB/c-nu mice, female, SPF grade, purchased from Beijing Vital River Laboratory Animal Technology Co., Ltd.
(§3) PC9 (De119/T790M/C797S) cells, constructed by Qilu Pharmaceutical Co., Ltd.
(§4) PC9 (De119/T790M/C797S) cells were cultured in RPMI 1640 medium containing 10% FBS at 37° C. in a 5% carbon dioxide incubator; cells in exponential growth phase were collected and inoculated.
Under sterile conditions, PC9 (De119/T790M/C797S) cell suspension cultured in vitro was taken, the cell concentration was adjusted to 3×10^7 cells/mL after centrifugation, and subcutaneously inoculated under the right armpit of mice (0.1 mL/ mouse). The day of inoculation was set as day 0.
a, When the average tumor volume was about 140 mm^3, 21 mice with moderate tumor volume were selected and randomly divided into […] according to the tumor volume: G1: solvent control group, G2: compound 243 (15 mg/kg) and G3: compound 243 (40 mg/kg), 7 mice/group.
(§5) b, After animals were grouped, administration was started, and the administration volume was 10 mL/kg, administered orally (po); administered by weight once a day for 21 consecutive days; tumor diameter was measured twice a week.
(§6) c, Tumor volume (TV): the tumor volume was measured twice a week to observe the volume change and growth rate of the tumor. Tumor volume V=½×a×b^2, where a and b represent the long and short diameters of the tumor, respectively. The growth inhibition effect of the compounds on tumor tissue was evaluated by tumor growth inhibition rate TGI (%). […] The data of the administration group and the negative control group were taken on the same day.
(§7) d, During the experiment, the living conditions of the mice, including appearance signs, general behavior, mental state, food intake, respiratory state, feces and urine characteristics, local injection site and other toxicity manifestations, were closely observed.
(§8) e, After the experiment reached the end point, the mice were euthanized, and the animal carcasses were frozen in a freezer and handed over to a qualified medical waste disposal unit for disposal.

The target in data set [3] is Ba/F3 L858R/T790M/C797S EGFR triple mutant cell line (Homo sapiens, UniProt P00533, T790M/C797S/L858R, cells depend on it). Description: Cell proliferation inhibition experiment (CellTiter-Glo), Ba/F3 L858R/T790M/C797S. Format: cell-based. The note with it: 72 hours, Cell Titer-Glo, read-out: Ba/F3 (L858R/T790M/C797S) IC50. (ATP-based viability assays read luminescence as a measure of living cells.)

Data set [4] deals with Ba/F3 De119/T790M/C797S EGFR triple mutant cell line (Homo sapiens, UniProt P00533, T790M/C797S, cells depend on it, form not given). Kind of data set: Cell proliferation inhibition experiment (CellTiter-Glo), Ba/F3 De119/T790M/C797S. The note with it: Ba/F3 Del19/T790M/C797S EGFR triple mutant cells, 72 hours, Cell Titer-Glo; read-out: Ba/F3 (Del19/T790M/C797S) IC50. Format: cell-based.

In data set [5] the test system is EGFR wild-type cell line A431. Kind of data set: Cell proliferation inhibition experiment (CellTiter-Glo), A431. Format: cell-based. The note with it: Homo sapiens, A-431, 72 h, A431 cells, Cell Titer-Glo, read-out: A431 EGFR WT IC50. Summed up:
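Luminescent CellTiter-Glo readout, 30 min at room temperature, after 72 h compound exposure at 37° C., 5% CO2 with 0.1% DMSO final. EGFR wild-type A431 cells were seeded at 800 per well and grown 24 h before dosing. IC50 derived from the dose-response.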

Another data set has as its target T2, wild-type EGFR (Homo sapiens, UniProt P00533).
T2 construct: purchased Signalchem
Kind of data set: Enzymology experiment in vitro (HTRF/FRET kinase activity), wild-type EGFR. Conditions: HTRF KinEASE-TK, read-out: EGFR (WT) IC50. Format: biochemical. The method, boiled down: as §1

The test system of data set [6] is PC9 (De119/T790M/C797S) nude mice xenograft model. Description: In vivo efficacy research experiment A (compound 242). On the set-up: species or system BALB/c-nu mice. Conditions: for Tumor volume (mm^3): mean ± standard error. How it is done: To evaluate the antitumor activity and toxic side effects of compound 242 orally administered for 21 days in PC9 (De119/T790M/C797S) nude mice xenograft model.
as §2, §3, §4
Under sterile conditions, PC9 (De119/T790M/C797S) cell suspension cultured in vitro was taken, the cell concentration was adjusted to 5×10^7 cells /mL after centrifugation, and subcutaneously inoculated under the right armpit of mice (0.1 mL/ mouse). The day of inoculation was set as day 0.
a, When the average tumor volume was about 180 mm^3, 24 mice with moderate tumor volume were selected and randomly divided into 3 groups according to the tumor volume: G1: solvent control group, G2: compound 242 (25 mg/kg) and G3: compound 242 (75/50 mg/kg), 8 mice/group.
as §5, §6, §7, §8

Setting [7] is: 15 mg/kg po once a day for 21 days.
[8] abbreviates: 40 mg/kg po once a day for 21 days.
Where [9] appears, read: 25 mg/kg po once a day for 21 days.
The mark [10] stands for this setting: 75 (D1-D6), 50 (D7-D21) mg/kg po once a day.

Marks after values point to notes of the source that are not given here.

T1 sequence (P00533 25-1210 T790M/C797S/L858R): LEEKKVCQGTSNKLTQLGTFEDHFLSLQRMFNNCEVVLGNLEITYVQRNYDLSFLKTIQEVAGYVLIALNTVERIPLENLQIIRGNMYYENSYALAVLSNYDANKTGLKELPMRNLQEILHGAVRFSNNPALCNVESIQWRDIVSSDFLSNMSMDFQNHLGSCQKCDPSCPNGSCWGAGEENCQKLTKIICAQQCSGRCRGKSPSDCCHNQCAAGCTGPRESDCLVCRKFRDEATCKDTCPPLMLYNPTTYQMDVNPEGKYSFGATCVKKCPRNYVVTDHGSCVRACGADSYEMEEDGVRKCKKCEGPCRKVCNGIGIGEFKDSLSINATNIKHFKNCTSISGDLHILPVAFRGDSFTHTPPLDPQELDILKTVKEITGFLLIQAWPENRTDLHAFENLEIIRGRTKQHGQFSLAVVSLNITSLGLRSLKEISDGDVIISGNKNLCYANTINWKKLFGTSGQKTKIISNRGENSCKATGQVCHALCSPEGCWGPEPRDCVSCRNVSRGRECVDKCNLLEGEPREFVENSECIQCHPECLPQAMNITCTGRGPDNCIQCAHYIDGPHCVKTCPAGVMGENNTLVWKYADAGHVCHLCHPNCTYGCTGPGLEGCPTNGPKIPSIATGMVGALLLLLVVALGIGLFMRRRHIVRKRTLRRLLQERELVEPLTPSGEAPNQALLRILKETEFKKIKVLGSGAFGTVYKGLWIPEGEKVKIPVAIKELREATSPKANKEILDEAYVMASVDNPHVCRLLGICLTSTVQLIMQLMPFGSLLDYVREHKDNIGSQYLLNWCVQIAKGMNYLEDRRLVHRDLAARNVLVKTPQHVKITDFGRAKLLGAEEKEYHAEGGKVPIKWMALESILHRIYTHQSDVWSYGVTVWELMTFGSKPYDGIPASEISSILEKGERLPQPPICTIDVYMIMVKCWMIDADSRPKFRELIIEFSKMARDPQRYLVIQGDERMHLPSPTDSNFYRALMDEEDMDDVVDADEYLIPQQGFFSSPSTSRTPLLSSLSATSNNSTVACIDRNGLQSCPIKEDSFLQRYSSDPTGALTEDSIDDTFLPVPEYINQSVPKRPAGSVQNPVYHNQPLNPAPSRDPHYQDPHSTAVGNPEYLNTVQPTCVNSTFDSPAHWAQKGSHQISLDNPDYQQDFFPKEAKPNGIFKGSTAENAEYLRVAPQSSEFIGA
T2 sequence (P00533 25-1210): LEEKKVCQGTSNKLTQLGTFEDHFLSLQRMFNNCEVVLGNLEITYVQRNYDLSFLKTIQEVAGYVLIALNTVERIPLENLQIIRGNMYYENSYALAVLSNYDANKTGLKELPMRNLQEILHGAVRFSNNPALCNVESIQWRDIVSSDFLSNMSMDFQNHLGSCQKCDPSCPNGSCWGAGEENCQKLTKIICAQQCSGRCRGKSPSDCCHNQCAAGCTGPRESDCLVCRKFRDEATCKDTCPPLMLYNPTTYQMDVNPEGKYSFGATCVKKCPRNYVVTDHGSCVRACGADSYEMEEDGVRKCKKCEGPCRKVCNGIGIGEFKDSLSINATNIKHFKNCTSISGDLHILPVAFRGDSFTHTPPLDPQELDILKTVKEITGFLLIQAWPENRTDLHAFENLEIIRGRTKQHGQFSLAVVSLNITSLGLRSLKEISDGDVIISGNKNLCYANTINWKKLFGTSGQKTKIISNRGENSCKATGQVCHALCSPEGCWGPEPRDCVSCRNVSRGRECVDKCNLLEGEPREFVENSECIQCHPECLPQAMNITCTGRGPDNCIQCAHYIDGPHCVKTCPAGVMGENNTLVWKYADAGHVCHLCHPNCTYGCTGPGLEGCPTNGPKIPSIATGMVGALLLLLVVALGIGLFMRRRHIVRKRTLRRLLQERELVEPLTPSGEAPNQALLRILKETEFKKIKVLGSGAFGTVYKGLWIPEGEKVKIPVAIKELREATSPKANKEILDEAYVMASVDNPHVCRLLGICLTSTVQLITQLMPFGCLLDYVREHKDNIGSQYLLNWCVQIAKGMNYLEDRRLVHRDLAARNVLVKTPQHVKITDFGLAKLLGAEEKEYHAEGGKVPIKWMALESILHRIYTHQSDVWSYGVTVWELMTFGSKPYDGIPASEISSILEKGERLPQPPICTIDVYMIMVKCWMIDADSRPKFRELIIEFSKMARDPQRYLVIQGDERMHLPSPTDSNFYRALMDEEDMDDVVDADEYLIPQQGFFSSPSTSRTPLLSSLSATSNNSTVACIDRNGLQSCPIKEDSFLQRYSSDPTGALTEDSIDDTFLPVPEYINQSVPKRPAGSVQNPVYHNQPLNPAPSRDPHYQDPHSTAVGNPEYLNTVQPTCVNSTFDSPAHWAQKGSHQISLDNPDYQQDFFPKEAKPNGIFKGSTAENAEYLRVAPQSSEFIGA
Ba/F3 L858R/T790M/C797S EGFR triple mutant cell line, sequence (P00533 whole entry T790M/C797S/L858R): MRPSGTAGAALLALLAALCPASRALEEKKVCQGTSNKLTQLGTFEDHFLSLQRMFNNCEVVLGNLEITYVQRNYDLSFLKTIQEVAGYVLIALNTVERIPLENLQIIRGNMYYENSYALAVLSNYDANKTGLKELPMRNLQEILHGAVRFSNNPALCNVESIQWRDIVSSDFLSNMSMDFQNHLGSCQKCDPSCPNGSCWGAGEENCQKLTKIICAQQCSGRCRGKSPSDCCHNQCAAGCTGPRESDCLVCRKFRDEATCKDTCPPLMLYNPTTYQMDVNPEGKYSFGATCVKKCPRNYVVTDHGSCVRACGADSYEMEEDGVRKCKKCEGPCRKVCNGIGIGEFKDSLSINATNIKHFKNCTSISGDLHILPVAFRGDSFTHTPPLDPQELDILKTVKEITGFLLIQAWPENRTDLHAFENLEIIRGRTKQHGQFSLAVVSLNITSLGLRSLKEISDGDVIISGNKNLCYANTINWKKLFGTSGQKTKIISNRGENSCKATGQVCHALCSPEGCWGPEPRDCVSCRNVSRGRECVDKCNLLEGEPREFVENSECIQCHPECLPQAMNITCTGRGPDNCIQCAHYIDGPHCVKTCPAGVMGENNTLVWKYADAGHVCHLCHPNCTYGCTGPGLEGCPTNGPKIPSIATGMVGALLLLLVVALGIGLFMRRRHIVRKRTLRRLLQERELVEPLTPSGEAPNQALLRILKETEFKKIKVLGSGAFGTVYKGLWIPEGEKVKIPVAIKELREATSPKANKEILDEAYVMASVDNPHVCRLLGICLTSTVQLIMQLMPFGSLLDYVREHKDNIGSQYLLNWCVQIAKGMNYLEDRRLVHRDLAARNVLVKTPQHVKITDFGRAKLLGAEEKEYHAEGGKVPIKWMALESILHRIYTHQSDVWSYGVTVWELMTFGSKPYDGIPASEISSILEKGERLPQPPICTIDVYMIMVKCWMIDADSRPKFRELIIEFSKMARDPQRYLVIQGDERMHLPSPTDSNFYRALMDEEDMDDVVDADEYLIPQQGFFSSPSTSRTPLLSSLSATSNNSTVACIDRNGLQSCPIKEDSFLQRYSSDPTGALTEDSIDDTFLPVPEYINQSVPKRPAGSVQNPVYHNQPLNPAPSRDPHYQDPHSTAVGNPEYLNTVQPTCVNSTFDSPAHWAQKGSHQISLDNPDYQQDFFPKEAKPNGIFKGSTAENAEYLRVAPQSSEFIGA
Ba/F3 De119/T790M/C797S EGFR triple mutant cell line, sequence (P00533 with tags, fused parts or gaps DEL746-750/T790M/C797S, form open): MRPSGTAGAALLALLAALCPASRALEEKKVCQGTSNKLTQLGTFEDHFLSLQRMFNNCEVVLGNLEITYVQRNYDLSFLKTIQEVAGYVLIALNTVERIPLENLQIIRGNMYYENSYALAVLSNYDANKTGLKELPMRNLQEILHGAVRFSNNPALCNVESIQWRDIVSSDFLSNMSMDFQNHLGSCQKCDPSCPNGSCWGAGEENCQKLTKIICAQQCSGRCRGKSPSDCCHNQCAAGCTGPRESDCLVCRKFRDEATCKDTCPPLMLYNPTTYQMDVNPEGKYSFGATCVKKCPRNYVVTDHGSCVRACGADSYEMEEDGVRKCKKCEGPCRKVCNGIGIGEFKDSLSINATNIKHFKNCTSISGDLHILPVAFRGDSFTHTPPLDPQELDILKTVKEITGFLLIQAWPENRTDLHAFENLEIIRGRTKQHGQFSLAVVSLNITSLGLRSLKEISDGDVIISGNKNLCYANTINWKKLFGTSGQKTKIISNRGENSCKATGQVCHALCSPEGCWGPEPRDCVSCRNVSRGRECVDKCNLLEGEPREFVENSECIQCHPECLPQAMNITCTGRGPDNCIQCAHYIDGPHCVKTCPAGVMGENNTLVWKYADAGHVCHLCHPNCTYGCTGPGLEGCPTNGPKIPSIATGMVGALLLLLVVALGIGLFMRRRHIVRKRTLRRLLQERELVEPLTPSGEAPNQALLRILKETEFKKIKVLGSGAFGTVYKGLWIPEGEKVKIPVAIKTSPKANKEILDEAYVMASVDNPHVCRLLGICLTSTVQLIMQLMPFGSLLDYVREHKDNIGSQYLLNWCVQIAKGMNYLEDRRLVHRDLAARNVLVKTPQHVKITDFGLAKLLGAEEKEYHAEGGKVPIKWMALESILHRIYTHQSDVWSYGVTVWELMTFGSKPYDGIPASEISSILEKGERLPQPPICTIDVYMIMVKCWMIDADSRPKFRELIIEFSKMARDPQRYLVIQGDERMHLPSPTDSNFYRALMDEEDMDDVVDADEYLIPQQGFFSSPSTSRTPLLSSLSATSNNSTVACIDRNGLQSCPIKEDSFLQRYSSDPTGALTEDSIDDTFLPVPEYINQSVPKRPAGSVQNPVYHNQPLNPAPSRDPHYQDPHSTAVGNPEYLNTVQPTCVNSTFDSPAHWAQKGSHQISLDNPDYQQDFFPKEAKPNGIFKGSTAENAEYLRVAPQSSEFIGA

`COc1cc(N2CCC3(CC2)CCN(C(C)(C)CF)CC3)c(-c2cnn(C)c2)cc1Nc1ncc(Br)c(Nc2ccc3nccnc3c2P(C)(C)=O)n1` [compound 243, (6-((5-Bromo-2-((4-(9-(1-fluoro-2-methylpropan-2-yl)-3,9-diazaspiro[5.5]undecan-3-yl)-2-methoxy-5-(1-methyl-1H-pyrazol-4-yl)phenyl)amino)pyrimidin-4-yl)amino)quinoxalin-5-yl)dimethylphosphine oxide]: the results for the IC50 (in data set [1]; in data set [5]; at wild-type EGFR) were 0.54 nM, 141 nM and 4.91 nM, respectively. Moreover, the values for the TGI in data set [2] (setting [7]) and in data set [2] (setting [8]) were 81.4% and 110.1%, respectively. Also, the Weight change in data set [2] (setting [7]) was −0.4%; in data set [2] (setting [8]), −6.1%. The “Tumor volume (mean ± standard error)” value in data set [2] (setting [7]) is 318.6 ± 38.63** mm^3; in data set [2] (setting [8]) it was 38.6 ± 5.19** mm^3. Further, the tolerability of mice entry in data set [2] (15, 40 mg/kg) is given as “well tolerated”. Besides, in data set [2] (15, 40 mg/kg po once a day for 21 days), the “tumor growth inhibition (in words)” value is “significantly inhibit tumor growth”. The GI50 in data set [3] came to 3.95 nM; in data set [4], 1.73 nM.

`COc1cc(N2CCC3(CCN(CC4(F)CC4)CC3)CC2)c(-c2cnn(C)c2)cc1Nc1ncc(Br)c(Nc2ccc3nccnc3c2P(C)(C)=O)n1` [compound 242, (6-((5-Bromo-2-((4-(9-((1-fluorocyclopropyl)methyl)-3,9-diazaspiro[5.5]undecan-3yl)-2-methoxy-5-(1-methyl-1H-pyrazol-4-yl)phenyl)amino)pyrimidin-4-yl)amino)quinoxalin-5-yl)dimethylphosphine oxide]: the IC50 in data set [1] was found to be 0.4 nM; in data set [5] it was 75.7 nM; at wild-type EGFR, 2.4 nM. In addition, the GI50 is 3.07 nM in data set [3] and 1.36 nM in data set [4]. The tolerability of mice entry in data set [6] (25 mg/kg and 50 mg/kg doses) is listed as “well tolerated”. Also, the results for the “TGI (%)” value in data set [6] (setting [9]) and in data set [6] (setting [10]) were 102% and 105%, respectively. Moreover, the entries for the “Weight change (%)” value in data set [6] (setting [9]) and in data set [6] (setting [10]) were 2.4% and −3.4%, respectively. The “Tumor volume (mm^3)” value is 139.8 ± 13.7** mm^3 in data set [6] (setting [9]) and 64.0 ± 11.9** mm^3 in data set [6] (setting [10]). Further, the “tumor growth inhibition (in words)” value in data set [6] (25, 75/50 mg/kg) was “significantly inhibit tumor growth”.
